Experimental data published in the NIST ThermoML archive (doi:10.1016/j.tca.2018.11.018).

Assay: xn = mol fraction of the nth substance listed
Settings: 100 kPa, Liquid; for viscosity: Falling or rolling sphere viscometry; for mass density: Vibrating tube method

CC[N+]1(C)CCCCC1.[Br-] [N-ethyl-N-methylpiperidinium bromide] + O
Settings | mass density [kg/m3] | viscosity [mPa·s]
298.15 K, x1 = 0.02 | 1042.3 | 1.263
298.15 K, x1 = 0.046 | 1088.3 | 2.026
298.15 K, x1 = 0.065 | 1116.9 | 2.813
298.15 K, x1 = 0.085 | 1141.4 | 3.992
298.15 K, x1 = 0.11 | 1167.4 | 6.16
298.15 K, x1 = 0.14 | 1192.2 | 11.35
298.15 K, x1 = 0.18 | 1217.8 | 20.55
298.15 K, x1 = 0.221 | 1237.8 | 36.06
298.15 K, x1 = 0.27 | 1255.2 | 68.76
298.15 K, x1 = 0.321 | 1268.9 | 135.3
303.15 K, x1 = 0.02 | 1040.5 | 1.124
303.15 K, x1 = 0.046 | 1085.9 | 1.783
303.15 K, x1 = 0.065 | 1114.2 | 2.444
303.15 K, x1 = 0.085 | 1138.5 | 3.419
303.15 K, x1 = 0.11 | 1164.3 | 5.175
303.15 K, x1 = 0.14 | 1189 | 9.449
303.15 K, x1 = 0.18 | 1214.4 | 16.67
303.15 K, x1 = 0.221 | 1234.4 | 28.38
303.15 K, x1 = 0.27 | 1251.8 | 51.92
303.15 K, x1 = 0.321 | 1265.5 | 98.65
308.15 K, x1 = 0.02 | 1038.6 | 1.011
308.15 K, x1 = 0.046 | 1083.5 | 1.59
308.15 K, x1 = 0.065 | 1111.5 | 2.147
308.15 K, x1 = 0.085 | 1135.5 | 2.967
308.15 K, x1 = 0.11 | 1161.2 | 4.41
308.15 K, x1 = 0.14 | 1185.7 | 7.861
308.15 K, x1 = 0.18 | 1211 | 13.6
308.15 K, x1 = 0.221 | 1230.9 | 22.48
308.15 K, x1 = 0.27 | 1248.4 | 39.91
308.15 K, x1 = 0.321 | 1262.1 | 73.14
313.15 K, x1 = 0.02 | 1036.4 | 0.915
313.15 K, x1 = 0.046 | 1081.1 | 1.421
313.15 K, x1 = 0.065 | 1108.7 | 1.901
313.15 K, x1 = 0.085 | 1132.5 | 2.595
313.15 K, x1 = 0.11 | 1158 | 3.8
313.15 K, x1 = 0.14 | 1182.3 | 6.584
313.15 K, x1 = 0.18 | 1207.5 | 11.17
313.15 K, x1 = 0.221 | 1227.4 | 18.06
313.15 K, x1 = 0.27 | 1244.9 | 31
313.15 K, x1 = 0.321 | 1258.6 | 54.37
318.15 K, x1 = 0.02 | 1034.1 | 0.834
318.15 K, x1 = 0.046 | 1078.7 | 1.279
318.15 K, x1 = 0.065 | 1105.9 | 1.697
318.15 K, x1 = 0.085 | 1129.5 | 2.287
318.15 K, x1 = 0.11 | 1154.8 | 3.301
318.15 K, x1 = 0.14 | 1178.9 | 5.574
318.15 K, x1 = 0.18 | 1204.1 | 9.251
318.15 K, x1 = 0.221 | 1223.9 | 14.7
318.15 K, x1 = 0.27 | 1241.4 | 24.63
318.15 K, x1 = 0.321 | 1255.2 | 42.07
323.15 K, x1 = 0.02 | 1031.6 | 0.767
323.15 K, x1 = 0.046 | 1075.9 | 1.162
323.15 K, x1 = 0.065 | 1102.9 | 1.522
323.15 K, x1 = 0.085 | 1126.3 | 2.045
323.15 K, x1 = 0.11 | 1151.5 | 2.895
323.15 K, x1 = 0.14 | 1175.5 | 4.742
323.15 K, x1 = 0.18 | 1200.6 | 7.76
323.15 K, x1 = 0.221 | 1220.4 | 12.15
323.15 K, x1 = 0.27 | 1237.9 | 19.99
323.15 K, x1 = 0.321 | 1251.8 | 33.03
328.15 K, x1 = 0.02 | 1029 | 0.709
328.15 K, x1 = 0.046 | 1073 | 1.063
328.15 K, x1 = 0.065 | 1099.9 | 1.378
328.15 K, x1 = 0.085 | 1123.1 | 1.83
328.15 K, x1 = 0.11 | 1148.1 | 2.563
328.15 K, x1 = 0.14 | 1172.1 | 4.087
328.15 K, x1 = 0.18 | 1197 | 6.616
328.15 K, x1 = 0.221 | 1216.9 | 10.15
328.15 K, x1 = 0.27 | 1234.4 | 16.44
328.15 K, x1 = 0.321 | 1248.3 | 26.76
333.15 K, x1 = 0.02 | 1026.3 | 0.656
333.15 K, x1 = 0.046 | 1070.2 | 0.976
333.15 K, x1 = 0.065 | 1096.7 | 1.249
333.15 K, x1 = 0.085 | 1119.9 | 1.65
333.15 K, x1 = 0.11 | 1144.7 | 2.285
333.15 K, x1 = 0.14 | 1168.6 | 3.555
333.15 K, x1 = 0.18 | 1193.5 | 5.691
333.15 K, x1 = 0.221 | 1213.4 | 8.658
333.15 K, x1 = 0.27 | 1230.9 | 13.81
333.15 K, x1 = 0.321 | 1244.9 | 21.95
338.15 K, x1 = 0.02 | 1023.5 | 0.616
338.15 K, x1 = 0.046 | 1067.1 | 0.9
338.15 K, x1 = 0.065 | 1093.5 | 1.142
338.15 K, x1 = 0.085 | 1116.9 | 1.495
338.15 K, x1 = 0.11 | 1141.4 | 2.046
338.15 K, x1 = 0.14 | 1165.1 | 3.13
338.15 K, x1 = 0.18 | 1189.9 | 4.925
338.15 K, x1 = 0.221 | 1209.8 | 7.418
338.15 K, x1 = 0.27 | 1227.4 | 11.66
338.15 K, x1 = 0.321 | 1241.4 | 18.17
343.15 K, x1 = 0.02 | 1020.4 | 0.579
343.15 K, x1 = 0.046 | 1063.9 | 0.835
343.15 K, x1 = 0.065 | 1090.3 | 1.05
343.15 K, x1 = 0.085 | 1113.8 | 1.363
343.15 K, x1 = 0.11 | 1137.9 | 1.845
343.15 K, x1 = 0.14 | 1161.5 | 2.616
343.15 K, x1 = 0.18 | 1186.3 | 4.343
343.15 K, x1 = 0.221 | 1206.2 | 6.433
343.15 K, x1 = 0.27 | 1223.9 | 10.03
343.15 K, x1 = 0.321 | 1238 | 15.35
348.15 K, x1 = 0.02 | 1016.6 | 0.548
348.15 K, x1 = 0.046 | 1060.6 | 0.778
348.15 K, x1 = 0.065 | 1087 | 0.967
348.15 K, x1 = 0.085 | 1110.3 | 1.247
348.15 K, x1 = 0.11 | 1134.3 | 1.67
348.15 K, x1 = 0.14 | 1157.9 | 2.352
348.15 K, x1 = 0.18 | 1182.7 | 3.798
348.15 K, x1 = 0.221 | 1202.6 | 5.613
348.15 K, x1 = 0.27 | 1220.3 | 8.668
348.15 K, x1 = 0.321 | 1234.5 | 13.11
